ChEMBL document CHEMBL5537169, “Structure-Activity Relationships and Discovery of (S)-6-Isopropyl-2-methoxy-3-(3-methoxypropoxy)-10-oxo-5,10-dihydro-6H-pyrido[1,2-h][1,7]naphthyridine-9-carboxylic Acid (AB-452), a Novel Orally Available HBV RNA Destabilizer” (J Med Chem, 2024)

Assays:
[1] = Drug accumulation in CD-1 mouse liver assessed as fold change in drug uptake at 10 mg/kg,po measured at 0.083 to 24 hrs post administration by LC-MS/MS analysis; type: ADME, organism-based; settings: in vivo, time 0.083-24 hrs
[2] = Half life in CD-1 mouse at 10 mg/kg,po measured at 0.083 to 24 hrs post administration by LC-MS/MS analysis; type: ADME, organism-based; settings: in vivo, time 0.083-24 hrs
[3] = Clearance in CD-1 mouse at 2 mg/kg,iv measured at 0.083 to 24 hrs post administration by LC-MS/MS analysis; type: ADME, organism-based; settings: in vivo, time 0.083-24 hrs
[4] = Cmax in Sprague-Dawley rat at 10 mg/kg,po measured at 0.083 to 24 hrs post administration by LC-MS/MS analysis; type: ADME, organism-based; settings: Sprague-Dawley, in vivo, time 0.083-24 hrs, read-out: Cmax
[5] = AUCinfinity in Sprague-Dawley rat at 10 mg/kg,po measured at 0.083 to 24 hrs post administration by LC-MS/MS analysis; type: ADME, organism-based; settings: in vivo, time 0.083-24 hrs
[6] = Apparent volume of distribution at steady state in CD-1 mouse at 2 mg/kg,iv measured at 0.083 to 24 hrs post administration by LC-MS/MS analysis; type: ADME, organism-based; settings: in vivo, time 0.083-24 hrs, read-out: Vdss(app)
[7] = Drug accumulation in Sprague-Dawley rat plasma assessed as fold change in drug uptake at 10 mg/kg,po measured at 0.083 to 24 hrs post administration by LC-MS/MS analysis; type: ADME, organism-based; settings: in vivo, time 0.083-24 hrs
[8] = AUCinfinity in Sprague-Dawley rat at 2 mg/kg,iv measured at 0.083 to 24 hrs post administration by LC-MS/MS analysis; type: ADME, organism-based; settings: in vivo, time 0.083-24 hrs
[9] = Cmax in CD-1 mouse at 10 mg/kg,po measured at 0.083 to 24 hrs post administration by LC-MS/MS analysis; type: ADME, organism-based; settings: in vivo, time 0.083-24 hrs
HepG2 2.2.15 = assay: Cytotoxicity against human HepG2.2.15 cells by Cell-titer Glo luminescent assay; type: functional
[10] = Cmax in CD-1 mouse at 2 mg/kg,iv measured at 0.083 to 24 hrs post administration by LC-MS/MS analysis; type: ADME, organism-based; settings: in vivo, time 0.083-24 hrs
[11] = Clearance in Sprague-Dawley rat at 2 mg/kg,iv measured at 0.083 to 24 hrs post administration by LC-MS/MS analysis; type: ADME, organism-based; settings: in vivo, time 0.083-24 hrs
[12] = Cmax in Sprague-Dawley rat at 2 mg/kg,iv measured at 0.083 to 24 hrs post administration by LC-MS/MS analysis; type: ADME, organism-based; settings: in vivo, time 0.083-24 hrs
Hepatitis B virus = assay: Antiviral activity against HBV infected in human HepG2.2.15 cells assessed as inhibition of HBsAg level incubated for 6 days by microplate-based chemiluminescence immunoassay; type: functional, organism-based; settings: HepG2 2.2.15, 144 h
[13] = Drug accumulation in Sprague-Dawley rat liver assessed as fold change in drug uptake at 10 mg/kg,po measured at 0.083 to 24 hrs post administration by LC-MS/MS analysis; type: ADME, organism-based; settings: in vivo, time 0.083-24 hrs
[14] = Oral bioavailability in Sprague-Dawley rat at 10 mg/kg measured at 0.083 to 24 hrs by LC-MS/MS analysis; type: ADME, organism-based; settings: in vivo, time 0.083-24 hrs
[15] = Oral bioavailability in CD-1 mouse at 10 mg/kg measured at 0.083 to 24 hrs by LC-MS/MS analysis; type: ADME, organism-based; settings: in vivo, time 0.083-24 hrs
[16] = Half life in Sprague-Dawley rat at 10 mg/kg,po measured at 0.083 to 24 hrs post administration by LC-MS/MS analysis; type: ADME, organism-based; settings: Sprague-Dawley, in vivo, time 0.083-24 hrs
[17] = Drug accumulation in CD-1 mouse plasma assessed as fold change in drug uptake at 10 mg/kg,po measured at 0.083 to 24 hrs post administration by LC-MS/MS analysis; type: ADME, organism-based; settings: in vivo, time 0.083-24 hrs
[18] = AUCinfinity in CD-1 mouse at 2 mg/kg,iv measured at 0.083 to 24 hrs post administration by LC-MS/MS analysis; type: ADME, organism-based; settings: in vivo, time 0.083-24 hrs
[19] = Half life in Sprague-Dawley rat at 2 mg/kg,iv measured at 0.083 to 24 hrs post administration by LC-MS/MS analysis; type: ADME, organism-based; settings: in vivo, time 0.083-24 hrs
[20] = AUCinfinity in CD-1 mouse at 10 mg/kg,po measured at 0.083 to 24 hrs post administration by LC-MS/MS analysis; type: ADME, organism-based; settings: in vivo, time 0.083-24 hrs
[21] = Apparent volume of distribution at steady state in Sprague-Dawley rat at 2 mg/kg,iv measured at 0.083 to 24 hrs post administration by LC-MS/MS analysis; type: ADME, organism-based; settings: in vivo, time 0.083-24 hrs, read-out: Vdss(app)
[22] = Half life in CD-1 mouse at 2 mg/kg,iv measured at 0.083 to 24 hrs post administration by LC-MS/MS analysis; type: ADME, organism-based; settings: in vivo, time 0.083-24 hrs
[23] = Clearance in CD-1 mouse liver microsomes at 0.3 uM pre-incubated for 10 mins followed by NADPH addition incubated for 60 mins by LC-MS/MS analysis; type: ADME, Microsome; settings: time 70 min, read-out: CLH
[24] = Clearance in human liver microsomes at 0.3 uM pre-incubated for 10 mins followed by NADPH addition incubated for 60 mins by LC-MS/MS analysis; type: ADME, Microsome; settings: time 70 min, read-out: CLH

## COCCCOc1cc2c(nc1OC)-c1cc(=O)c(C(=O)O)cn1[C@](C)(C(C)C)C2
[1]
  fold change (FC): 1
[2]
  half-life: 4.5 h
[3]
  clearance: 55 mL/min/kg
[4]
  Cmax: 965 ng/mL
[5]; Sprague-Dawley
  AUC(0-inf): 6480 ng·h/mL
[6]
  Vd: 4 L/kg
[7]
  fold change (FC): 2.7
[8]; Sprague-Dawley
  AUC(0-inf): 1570 ng·h/mL
[9]
  Cmax: 639 ng/mL
HepG2 2.2.15
  CC50: > 50000 nM
[10]
  Cmax: 470 ng/mL
[11]
  clearance: 22 mL/min/kg
[12]
  Cmax: 1590 ng/mL
Hepatitis B virus
  EC50: 8 nM
[13]
  fold change (FC): 15
[14]; Sprague-Dawley
  bioavailability: 82%
[15]
  bioavailability: 136%
[16]
  half-life: 4.4 h
[17]
  fold change (FC): 0.1
[18]
  AUC(0-inf): 615 ng·h/mL
[19]
  half-life: 4.4 h
[20]
  AUC(0-inf): 4160 ng·h/mL
[21]
  Vd: 2.7 L/kg
[22]
  half-life: 1.5 h

## CC(C)[C@@H]1COc2cc(OCCCCO)c(Cl)cc2-c2cc(=O)c(C(=O)O)cn21
HepG2 2.2.15
  CC50: > 50000 nM
[23]
  microsomal CLint at 0.3 µM: 1 µL/min/mg
Hepatitis B virus
  EC50: 14 nM

## COCCCOc1cc2c(cc1C)-c1cc(=O)c(C(=O)O)cn1[C@H](C(C)C)CO2
[24]
  microsomal CLint at 0.3 µM: 8 µL/min/mg
HepG2 2.2.15
  CC50: 39000 nM
[23]
  microsomal CLint at 0.3 µM: 4 µL/min/mg
Hepatitis B virus
  EC50: 39 nM

## CCC1(C(C)C)Cc2cc(OCCCOC)c(OC)nc2-c2cc(=O)c(C(=O)O)cn21 (configuration not stated)
HepG2 2.2.15
  CC50: > 50000 nM
Hepatitis B virus
  EC50: 6 nM

## COc1cc2c(nc1OC)-c1cc(=O)c(C(=O)O)cn1[C@H](C(C)C)C2
HepG2 2.2.15
  CC50: > 50000 nM
Hepatitis B virus
  EC50: 7 nM

## COc1cc2c(cc1Cl)-c1cc(=O)c(C(=O)O)cn1[C@@H](C(C)C)CO2
HepG2 2.2.15
  CC50: > 50000 nM
Hepatitis B virus
  EC50: 3500 nM

## COCc1nc2c(s1)CC(C(C)C)n1cc(C(=O)O)c(=O)cc1-2 (configuration not stated)
HepG2 2.2.15
  CC50: > 50000 nM
Hepatitis B virus
  EC50: 3000 nM

## COc1cc2c(cc1Cl)-c1cc(=O)c(C(=O)O)cn1[C@H](C(C)C)CO2
HepG2 2.2.15
  CC50: > 50000 nM
[23]
  microsomal CLint at 0.3 µM: 1 µL/min/mg
Hepatitis B virus
  EC50: 38 nM

## CC(C)[C@@H]1COc2cc(OCCCN3CCOCC3)c(Cl)cc2-c2cc(=O)c(C(=O)O)cn21
HepG2 2.2.15
  CC50: > 50000 nM
[23]
  microsomal CLint at 0.3 µM: 1 µL/min/mg
Hepatitis B virus
  EC50: 140 nM

## COCCOc1cc2c(cc1Cl)-c1cc(=O)c(C(=O)O)cn1[C@@H](C(C)C)CO2
HepG2 2.2.15
  CC50: > 50000 nM
Hepatitis B virus
  EC50: 780 nM

## COCCCOc1cc2c(nc1OC)-c1cc(=O)c(C(=O)O)cn1[C@@H](C(C)C)C2
HepG2 2.2.15
  CC50: > 50000 nM
Hepatitis B virus
  EC50: 950 nM

## COc1ccc(-c2cc(=O)c(C(=O)O)cn2CC(C)(C)C)cc1OC
Hepatitis B virus
  EC50: 10000 nM

## COc1cc2c(cc1OC)-c1cc(=O)c(C(=O)O)cn1[C@H](C(C)C)C2
Hepatitis B virus
  EC50: 7.3 nM

## CC(C)[C@@H]1COc2cc(OCCCO)c(Cl)cc2-c2cc(=O)c(C(=O)O)cn21
[24]
  microsomal CLint at 0.3 µM: 4 µL/min/mg
HepG2 2.2.15
  CC50: > 50000 nM
[23]
  microsomal CLint at 0.3 µM: 6 µL/min/mg
Hepatitis B virus
  EC50: 19 nM

## CC(C)[C@@H]1COc2cc(OCC3CC3)c(Cl)cc2-c2cc(=O)c(C(=O)O)cn21
HepG2 2.2.15
  CC50: 37000 nM
[23]
  microsomal CLint at 0.3 µM: 1 µL/min/mg
Hepatitis B virus
  EC50: 32 nM

## COCCCOc1cc2c(nc1OC)-c1cc(=O)c(C(=O)O)cn1[C@](C)(C(C)(C)C)C2
[1]
  fold change (FC): 41
[2]
  half-life: 3.7 h
[3]
  clearance: 29 mL/min/kg
[4]
  Cmax: 274 ng/mL
[5]; po, 10 mg/kg
  AUC: 1666 ng·h/mL
[6]
  Vd: 4 L/kg
[7]
  fold change (FC): 7.4
[8]; iv, 2 mg/kg
  AUC: 1199 ng·h/mL
[9]
  Cmax: 653 ng/mL
HepG2 2.2.15
  CC50: 41000 nM
[10]
  Cmax: 834 ng/mL
[11]
  clearance: 40 mL/min/kg
[12]
  Cmax: 1680 ng/mL
Hepatitis B virus
  EC50: 1 nM
[13]
  fold change (FC): 35
[14]; po, 10 mg/kg
  F: 56%
[15]
  bioavailability: 92%
[16]
  half-life: 5.2 h
[17]
  fold change (FC): 4
[18]
  AUC(0-inf): 914 ng·h/mL
[19]
  half-life: 2.9 h
[20]
  AUC(0-inf): 4360 ng·h/mL
[21]
  Vd: 3.1 L/kg
[22]
  half-life: 1.7 h
